Assay results from patent US10583074B2, “Oral care compositions” (priority 2017, dated 2020).
≈ marks a conversion by molar mass, not a printed value. Where two headings read alike, the source gives them in different places.

Key:
Assay in all cases: Minimum inhibitory concentration
Format in all cases: cell-based
[1] = tested on: Streptococcus oralis ATCC 35037
Text: (§1) That is, the amount in parts-per-million (ppm) required to inhibit the growth of common bacterial pathogens.

[2] = tested on: Lactobacillus casei ATCC 334; settings: Lacticaseibacillus casei
Text: as §1

[3] = tested on: Actinomyces viscosus ATCC 43137
Text: as §1

[4] = ATCC35037, Streptococcus oralis ATCC 35037, solvent ethanol or DMSO per sample, read-out: minimum inhibitory concentration
[5] = ATCC334, Lactobacillus casei ATCC 334, solvent ethanol or DMSO per sample, read-out: minimum inhibitory concentration
[6] = ATCC43137, Actinomyces viscosus ATCC 43137, solvent ethanol or DMSO per sample, read-out: minimum inhibitory concentration

MIC [1, 4] [µg/mL] | MIC [2, 5] [µg/mL] | MIC [3, 6] [µg/mL] | SMILES | MIC ([1]; Streptococcus oralis, ATCC35037, read-out: minimum inhibitory concentration) [µg/mL] | MIC ([2]; ATCC334, read-out: minimum inhibitory concentration) [µg/mL] | MIC ([3]; Actinomyces viscosus, ATCC43137, read-out: minimum inhibitory concentration) [µg/mL]
 |  |  | Oc1cc(Cl)ccc1Oc1ccc(Cl)cc1Cl [Triclosan] | 7.8 (≈ 26.9 µM) | 7.8 (≈ 26.9 µM) | 3.9 (≈ 13.5 µM)
250 (≈ 1520 µM) | 250 (≈ 1520 µM) | 250 (≈ 1520 µM) | C=CCc1ccc(O)c(OC)c1 [Eugenol, 4-allyl-2-methoxyphenol] |  |  | 
7.8 (≈ 17.1 µM) | 7.8 (≈ 17.1 µM) | 15.6 (≈ 34.2 µM) | CC1(C)CC[C@]2(C(=O)O)CC[C@]3(C)C(=CC[C@@H]4[C@@]5(C)CC[C@H](O)C(C)(C)[C@@H]5CC[C@]43C)[C@@H]2C1 [Oleanic Acid, 3β-hydroxy-olea-12-en-28-oic] |  |  | 
